# According to the supplement of paper PMC10307832:
# Experiments:
# Experiment in all cases: relative viability (nuclei count vs DMSO), 5 days (fraction); higher = more cells survive
# FH535 + Crizotinib = compound: CC1=C(C=CC(=C1)[N+](=O)[O-])NS(=O)(=O)C2=C(C=CC(=C2)Cl)Cl [FH535] + C[C@@H](Oc1cc(-c2cnn(C3CCNCC3)c2)cnc1N)c1c(Cl)ccc(F)c1Cl [Crizotinib] (partner 1 µM)
# Procedure, shortened: (§1)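 Cells from lung cancer lines were seeded into 1536-well plates and, one day later, dosed by pin tool. Treatments were either a single drug or a fixed dose of an anchor drug with five library-drug doses (not always all listed) in √10 steps. After 5 days, nuclei were stained in a one-step fixation (final 0.05% Triton X-100, 1% formaldehyde, 1 ug/ml Hoechst) and counted on 4× images, and relative viability is the treated-to-vehicle nuclei ratio, as the median of duplicate plates.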
# FH535 + Pictilisib = compound: CC1=C(C=CC(=C1)[N+](=O)[O-])NS(=O)(=O)C2=C(C=CC(=C2)Cl)Cl [FH535] + CS(=O)(=O)N1CCN(Cc2cc3nc(-c4cccc5[nH]ncc45)nc(N4CCOCC4)c3s2)CC1 [Pictilisib] (partner 1 µM)
# Procedure, shortened: as §1
# FH535 + Lapatinib = compound: CC1=C(C=CC(=C1)[N+](=O)[O-])NS(=O)(=O)C2=C(C=CC(=C2)Cl)Cl [FH535] + CS(=O)(=O)CCNCc1ccc(-c2ccc3ncnc(Nc4ccc(OCc5cccc(F)c5)c(Cl)c4)c3c2)o1 [Lapatinib] (partner 2 µM)
# Procedure, shortened: as §1
# FH535 + Bortezomib = compound: CC1=C(C=CC(=C1)[N+](=O)[O-])NS(=O)(=O)C2=C(C=CC(=C2)Cl)Cl [FH535] + CC(C)C[C@H](NC(=O)[C@H](Cc1ccccc1)NC(=O)c1cnccn1)B(O)O [Bortezomib] (partner 0.002 µM)
# Procedure, shortened: as §1
# FH535 + Navitoclax = compound: CC1=C(C=CC(=C1)[N+](=O)[O-])NS(=O)(=O)C2=C(C=CC(=C2)Cl)Cl [FH535] + CC1(C)CCC(c2ccc(Cl)cc2)=C(CN2CCN(c3ccc(C(=O)NS(=O)(=O)c4ccc(N[C@H](CCN5CCOCC5)CSc5ccccc5)c(S(=O)(=O)C(F)(F)F)c4)cc3)CC2)C1 [Navitoclax] (partner 0.5 µM)
# Procedure, shortened: as §1
# FH535 + Foretinib = compound: CC1=C(C=CC(=C1)[N+](=O)[O-])NS(=O)(=O)C2=C(C=CC(=C2)Cl)Cl [FH535] + COc1cc2c(Oc3ccc(NC(=O)C4(C(=O)Nc5ccc(F)cc5)CC4)cc3F)ccnc2cc1OCCCN1CCOCC1 [Foretinib] (partner 0.25 µM)
# Procedure, shortened: as §1
# FH535 + Alpelisib = compound: CC1=C(C=CC(=C1)[N+](=O)[O-])NS(=O)(=O)C2=C(C=CC(=C2)Cl)Cl [FH535] + Cc1nc(NC(=O)N2CCC[C@H]2C(N)=O)sc1-c1ccnc(C(C)(C)C(F)(F)F)c1 [Alpelisib] (partner 2 µM)
# Procedure, shortened: as §1
# FH535 + Linsitinib = compound: CC1=C(C=CC(=C1)[N+](=O)[O-])NS(=O)(=O)C2=C(C=CC(=C2)Cl)Cl [FH535] + C[C@]1(O)C[C@@H](c2nc(-c3ccc4ccc(-c5ccccc5)nc4c3)c3c(N)nccn32)C1 [Linsitinib] (partner 1 µM)
# Procedure, shortened: as §1
# FH535 + Olaparib = compound: CC1=C(C=CC(=C1)[N+](=O)[O-])NS(=O)(=O)C2=C(C=CC(=C2)Cl)Cl [FH535] + O=C(c1cc(Cc2n[nH]c(=O)c3ccccc23)ccc1F)N1CCN(C(=O)C2CC2)CC1 [Olaparib] (partner 8 µM)
# Procedure, shortened: as §1
# FH535 = compound: CC1=C(C=CC(=C1)[N+](=O)[O-])NS(=O)(=O)C2=C(C=CC(=C2)Cl)Cl [FH535]
# Procedure, shortened: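 Following overnight incubation at 37 °C, lung cancer cell lines in 1536-well plates were pinned with five library-drug doses (not always all listed) in √10 steps on vehicle-anchored plates. The cells then spent 5 days without medium change before a combined fix, permeabilisation and Hoechst stain, 4× imaging and MetaXpress nuclear counts. Viability is the treated-to-vehicle ratio of nuclei, taken as the median across plates. Only plates with control CV below 25% and at least one doubling passed.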
cell line,measurement,setting,value
NCI-H1299,relative viability,FH535 + Crizotinib; first compound 0.04 µM,1
same,relative viability,FH535 + Crizotinib; first compound 0.1265 µM,0.932
same,relative viability,FH535 + Crizotinib; first compound 0.4 µM,0.966
same,relative viability,FH535 + Crizotinib; first compound 1.265 µM,0.876
same,relative viability,FH535 + Pictilisib; first compound 0.04 µM,0.736
same,relative viability,FH535 + Pictilisib; first compound 0.1265 µM,0.8
same,relative viability,FH535 + Pictilisib; first compound 0.4 µM,0.772
same,relative viability,FH535 + Pictilisib; first compound 1.265 µM,0.712
same,relative viability,FH535 + Lapatinib; first compound 0.04 µM,0.979
same,relative viability,FH535 + Lapatinib; first compound 0.1265 µM,0.947
same,relative viability,FH535 + Lapatinib; first compound 0.4 µM,0.963
same,relative viability,FH535 + Lapatinib; first compound 1.265 µM,0.76
same,relative viability,FH535 + Bortezomib; first compound 0.04 µM,1.03
same,relative viability,FH535 + Bortezomib; first compound 0.1265 µM,1.03
same,relative viability,FH535 + Bortezomib; first compound 0.4 µM,1.07
same,relative viability,FH535 + Bortezomib; first compound 1.265 µM,0.809
same,relative viability,FH535 + Navitoclax; first compound 0.04 µM,1.04
same,relative viability,FH535 + Navitoclax; first compound 0.1265 µM,1.07
same,relative viability,FH535 + Navitoclax; first compound 0.4 µM,1.08
same,relative viability,FH535 + Navitoclax; first compound 1.265 µM,0.954
same,relative viability,FH535 + Foretinib; first compound 0.04 µM,1.12
same,relative viability,FH535 + Foretinib; first compound 0.1265 µM,1.07
same,relative viability,FH535 + Foretinib; first compound 0.4 µM,1.12
same,relative viability,FH535 + Foretinib; first compound 1.265 µM,1.03
same,relative viability,FH535 + Alpelisib; first compound 0.04 µM,1.05
same,relative viability,FH535 + Alpelisib; first compound 0.1265 µM,0.983
same,relative viability,FH535 + Alpelisib; first compound 0.4 µM,1.05
same,relative viability,FH535 + Alpelisib; first compound 1.265 µM,1.07
same,relative viability,FH535 + Linsitinib; first compound 0.04 µM,0.98
same,relative viability,FH535 + Linsitinib; first compound 0.1265 µM,0.978
same,relative viability,FH535 + Linsitinib; first compound 0.4 µM,0.957
same,relative viability,FH535 + Linsitinib; first compound 1.265 µM,0.927
same,relative viability,FH535 + Olaparib; first compound 0.04 µM,1.01
same,relative viability,FH535 + Olaparib; first compound 0.1265 µM,1.03
same,relative viability,FH535 + Olaparib; first compound 0.4 µM,0.973
same,relative viability,FH535 + Olaparib; first compound 1.265 µM,0.777
same,relative viability,FH535; 0.04 µM,1.01
same,relative viability,FH535; 0.1265 µM,1.01
same,relative viability,FH535; 0.4 µM,1.02
same,relative viability,FH535; 1.265 µM,0.932
